Data set [1] concerns STZ diabetic rats. Description: Determination of blood glucose effect in streptozotocin-treated diabetic rats (Study A). It counts as in vivo, rat (male Sprague Dawley). The conditions noted are these: oral 0.1 mg/kg. How it is done:
I. Protocol for Study A: Determination of Blood Glucose Effect in Streptozotocin-Treated Diabetic Rats
The following analysis was utilized to reasonably predict the impact on plasma glucose for the compounds analyzed in the matrix above.
Male Sprague Dawley rats (Charles River) weighing 250-275 g were made diabetic by a single intraperitoneal injection of streptozotocin (Sigma) at 65 mg/kg, prepared in fresh cold (4° C.) 0.01 M citrate buffer. Four days later, animals were bled in the fed state. Whole blood was collected via the tail tip and analyzed for glucose by the glucose oxidation method with a Glucometer Elite (Bayer). Mean blood glucose levels ranged from 450-550 mg/dl.
On the day of the experiment, the compound was dissolved in the vehicle comprised of 5% m-Pyrol, 20% PEG 400 and 20 mM Sodium Diphosphate. Rats were weighed, randomized into 4 groups with 6 rats in each group, and dosed orally with the vehicle or 0.1 mg/kg of the compound. The total volume for oral gavage was 1 ml/kg body weight. After dosing, the food was removed from the cages and the rats had access to water ad lib during the experiment. Blood samples were obtained from the tail tip at 0, 30, 60, 120, 180, 240 and 300 minutes following drug administration. Blood glucose was analyzed by the glucose oxidation method with a Glucometer Elite (Bayer).
A. Statistical Data Analysis
The calculation of mean blood glucose values and percent changes vs. vehicle at each time point were performed using Microsoft Excel. Statistical analyses (T tests, or ANOVA followed by Fisher's test) comparing drug-treated groups vs. vehicle controls) were performed using Microsoft Excel or the statistical program StatView. A p value of less that 0.05 was considered to be statistically significant.

Data set [2] can be described thus: Stability in presence of commonly used solid excipients under accelerated aging conditions (Study B). It counts as physicochemical. The conditions noted are these: for Stability in a prototypical formulation: drug-excipient blends, accelerated aging conditions, 1 and 3 weeks, HPLC analysis. An excerpt: II. Protocol for Study B: Stability Determination of Oxidatively Labile Therapeutic Agent in Presence of Commonly Used Solid Excipients, Under Accelerated Aging Conditions
The following procedure was utilized to access the chemical stability of the compound 3 in the presence of commonly used excipients and typical antioxidants.
The drug substance was triturated in a mortar pestle with the respective antioxidant, and then mixed in the dry state with other excipients listed in the following table. Sodium metabisulfite and butylated hydroxyl anisole (BHA) were used as antioxidants in this study. BHA was used at two levels, 0.01% w/w and 0.5% w/w, and sodium metabisulfite was used at 0.01% w/w. For samples stored at 40° C./[…] and HIL/uv, oxygen gas was purged into the vials and they were tightly capped. The drug-excipient blends (A-D) were placed under the different accelerated aging conditions listed within the second table for 1 and 3 weeks prior to HPLC analysis.

The subject of data set [3] is Chinese hamster ovary (CHO) cells. Put plainly: Cytogenetics study in Chinese hamster ovary cells, in vitro clastogenicity / chromosome aberration (Study C). The conditions noted are these: 3 hr with/without S9, 20 hr without S9.
From the text: (§1) The following protocol was utilized to predict the in vitro clastogenicity activity of compounds of therapeutic interest.
(§2) Clastogenicity was predicted by determining the potential of compounds of interest to induce structural chromosome damage in Chinese hamster ovary (CHO) cells.
(§3) The vehicle control is dimethyl sulfoxide (DMSO). The positive controls were Mitomycin C for the 3-hr and 20-hr exposure without S9 activation and cyclophosphamide for the 3-hr exposure with S9 rat-liver enzymes. Both Mitomycin C and cyclophosphamide were diluted with sterile water.
(§4) Two stock solutions in DMSO of the compound of interest were prepared—one being a high concentration, the other low. Aliquots of the vehicle control, low and high dosing solutions were collected following treatment of the CHO cells and subsequently analyzed to determine the concentration of the compound of interest. […] Once the upper limit of solubility of the compound of interest was determined in DMSO, that DMSO solution is added to culture medium to determine effects on pH or osmmolality. […]
(§5) The DMSO stock solution of the compound of interest was 100× concentration of the highest test-article concentration to be used in the full assay. […] The cytotoxicity dose response observed in the range finding study determined the serial dilution factor for the five lower doses. […]
The test system is the same in data set [4].
From the text: as §1, §2, §3, §4, §5

Each structure is given as a SMILES string. Like-named read-outs stand apart in the source and are kept apart here.

As to `CCc1ccc(Cc2cc([C@@H]3O[C@H](CO)[C@@H](O)[C@H](O)[C@H]3O)ccc2Cl)cc1` [Compound 1], in data set [1], the “% Decrease of plasma glucose in STZ diabetic rats at 5 hr after an oral dose of 0.1 mg/kg vs. vehicle treated controls” value (“% Decrease of plasma glucose” below) stood at 62%. Further, in data set [2], the “Stability in a prototypical formulation” value is recorded as “Yes” and the “Chemical stability in the presence of excipients commonly used in solid dosage forms” value (“Chemical stability in the presence” for short) was “chemically stable”.

With `CCOc1ccc(Cc2cc([C@@H]3O[C@H](CO)[C@@H](O)[C@H](O)[C@H]3O)ccc2Cl)cc1` [Compound 4], in data set [1], the “% Decrease of plasma glucose” value was 60%. Besides, the “In vitro clastogenic activity” value in data set [3] was “Yes”. Moreover, in data set [2], the “Stability in a prototypical formulation” value is “Yes” and the “Chemical stability in the presence” value is given as “chemically stable”.

For `CCc1ccc(Cc2cccc([C@@H]3O[C@H](CO)[C@@H](O)[C@H](O)[C@H]3O)c2)cc1` [Compound 5], the “% Decrease of plasma glucose” value in data set [1] worked out at 34%. Also, in data set [2], the “Stability in a prototypical formulation” value is recorded as “Yes” and the “Chemical stability in the presence” value is given as “chemically stable”. The “In vitro clastogenic activity” value in data set [4] is given as “Yes”.

For the molecule `CSc1ccc(Cc2cc([C@@H]3O[C@H](CO)[C@@H](O)[C@H](O)[C@H]3O)ccc2C)cc1` [Compound 3], the “% Decrease of plasma glucose” value in data set [1] amounted to 59%. Moreover, the “Stability in a prototypical formulation” value in data set [2] is recorded as “No”.

Source of the values: patent US7589193B2, “C-aryl glucoside SGLT2 inhibitors and method” (Bristol-Myers Squibb Company, priority 2004, dated 2009).
